Key:
MCT4 = MCT4 (Homo sapiens (Human), UniProt O15427); experiment: Assay 3: MCT4-mediated lactate transport in MDA-MB-231 breast cancer cells; type: cell-based; conditions: MDA-MB-231 cells
Experimental: (§1) Preparing BCECF-Loaded Cells
(§2) 10 µL of a 30 mM DMSO stock of BCECF-AM ester (Life Technologies) is added and the cells are incubated at 37° C. for 5 min. The cells are pelleted (300 g, 5 min), washed once with 1 mL Tyrode's Solution, pH 7.4, re-pelleted (300 g, 5 min), and resuspended in 1 mL Tyrode's Solution, pH 7.4.
MCT4 activity may be assessed by monitoring the intracellular pH change that accompanies lactate/proton symport, using the pH-sensitive fluorescent dye 2′,7′-bis-(carboxyethyl)-5(6)-carboxyfluorescein (BCECF), in a manner similar to that previously reported for MCT1 and MCT4. The following is an exemplary procedure for assaying MCT4 activity of the compounds of Formula (I).

MCT1 = MCT1 (Homo sapiens (Human), UniProt P53985); experiment: Assay 4: MCT1-mediated lactate transport in BT20 breast cancer cells; type: cell-based; conditions: lactate transport (Table 27)
Sequence of MCT1 (P53985 whole entry): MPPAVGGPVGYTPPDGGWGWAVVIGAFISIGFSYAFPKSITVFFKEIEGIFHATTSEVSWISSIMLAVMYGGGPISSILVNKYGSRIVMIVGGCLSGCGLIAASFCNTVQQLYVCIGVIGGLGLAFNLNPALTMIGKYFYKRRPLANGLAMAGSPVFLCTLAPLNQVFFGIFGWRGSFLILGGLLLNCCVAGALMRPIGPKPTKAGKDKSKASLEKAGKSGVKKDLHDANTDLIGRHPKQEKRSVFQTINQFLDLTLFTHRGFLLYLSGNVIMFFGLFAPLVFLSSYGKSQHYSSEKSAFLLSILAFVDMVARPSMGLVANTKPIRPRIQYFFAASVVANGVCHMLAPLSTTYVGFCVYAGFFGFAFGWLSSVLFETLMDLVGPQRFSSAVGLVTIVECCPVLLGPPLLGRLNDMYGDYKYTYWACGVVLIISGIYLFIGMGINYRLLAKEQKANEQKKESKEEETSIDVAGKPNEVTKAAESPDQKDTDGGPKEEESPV
Sequence of MCT1 (P35613 140-385 partner): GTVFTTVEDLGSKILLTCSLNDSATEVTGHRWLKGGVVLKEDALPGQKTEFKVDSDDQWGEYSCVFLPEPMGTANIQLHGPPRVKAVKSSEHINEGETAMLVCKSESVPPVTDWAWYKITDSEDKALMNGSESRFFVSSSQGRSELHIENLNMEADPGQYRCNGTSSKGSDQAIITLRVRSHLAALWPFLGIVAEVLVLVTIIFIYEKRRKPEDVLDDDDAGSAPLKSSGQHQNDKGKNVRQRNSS
Experimental: as §1, §2
Assay 4: MCT1-Mediated Lactate Transport in BT20 Breast Cancer Cells.
Preparation of BCECF loaded cells are as described for Assay 1. Lactate transport assay is as described for Assay 1, except 10 mM L-lactate (rather than 50 mM) is added.

Sequence of MCT4 (O15427 whole entry, looked up): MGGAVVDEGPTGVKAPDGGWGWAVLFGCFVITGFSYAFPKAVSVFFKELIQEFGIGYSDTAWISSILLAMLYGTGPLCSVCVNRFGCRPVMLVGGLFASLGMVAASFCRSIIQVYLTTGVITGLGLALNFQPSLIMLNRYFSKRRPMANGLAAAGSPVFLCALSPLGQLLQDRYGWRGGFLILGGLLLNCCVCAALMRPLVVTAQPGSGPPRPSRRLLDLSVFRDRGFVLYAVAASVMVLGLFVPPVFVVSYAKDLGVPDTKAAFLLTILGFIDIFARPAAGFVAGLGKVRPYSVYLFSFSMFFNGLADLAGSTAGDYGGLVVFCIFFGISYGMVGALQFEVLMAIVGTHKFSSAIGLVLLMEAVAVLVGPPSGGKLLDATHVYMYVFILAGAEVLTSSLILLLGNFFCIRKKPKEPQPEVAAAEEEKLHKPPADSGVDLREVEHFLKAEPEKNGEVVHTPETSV
Sequence of MCT4 (P35613 whole entry partner, looked up): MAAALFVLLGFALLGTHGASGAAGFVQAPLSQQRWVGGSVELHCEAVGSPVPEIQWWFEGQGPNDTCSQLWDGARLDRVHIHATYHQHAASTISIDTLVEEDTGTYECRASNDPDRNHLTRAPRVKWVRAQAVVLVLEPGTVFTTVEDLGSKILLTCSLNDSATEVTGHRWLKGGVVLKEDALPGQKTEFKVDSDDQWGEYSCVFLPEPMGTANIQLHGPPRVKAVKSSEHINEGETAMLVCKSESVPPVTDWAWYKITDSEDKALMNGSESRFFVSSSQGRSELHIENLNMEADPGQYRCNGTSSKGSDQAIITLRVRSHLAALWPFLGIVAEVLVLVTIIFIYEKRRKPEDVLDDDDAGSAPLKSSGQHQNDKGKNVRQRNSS

With `CC(C)(OCc1cc(-c2cc(OC3CC3)cs2)n(Cc2ccccc2Cl)n1)C(=O)O` [Example 130, 2-([1-[(2-Chlorophenyl)methyl]-5-(4-cyclopropoxythien-2-yl)-1H-pyrazol-3-yl]methoxy)-2-methylpropanoic acid] the IC50 (MCT4) was 98 nM and the IC50 (MCT1) was 55 nM.
In the case of `CCCn1ncc2ccc(-c3cc(COC(C)(C)C(=O)O)nn3-c3ccccc3N3CCCC3)cc21` [Example 250, 2-Methyl-2-([5-(1-propyl-1H-indazol-6-yl)-1-[2-(pyrrolidin-1-yl)phenyl]-1H-pyrazol-3-yl]methoxy]propanoic acid], the IC50 (MCT4) is reported as 1.3 nM and the IC50 (MCT1) is reported as 41000 nM.

From patent US11292767B2, “Heterocyclic inhibitors of MCT4” (Vettore, LLC, priority 2016, dated 2022)
